US20030082752A1, “Enzymatic process for producing GDP-alpha-D-mannose, a GDP mannose pyrophosphorylase and phosphomannomutase suitable for that process, the extraction of the said enzymes, and an enzyme test” (priority 1995, published 2003)
Like-named read-outs stand apart in the source and are kept apart here.

What was measured:
[1] = system: pyrophosphorylases in Escherichia coli BL21(DE3)pLysSpERJ-1 raw extract; assay: NUSSA screening of pyrophosphorylases in E. coli raw extract; format: biochemical; details: 20 μg/mL raw extract
Method: (§1) The total volume was 200 μL.
2) Example: Use of NUSSA for screening pyrophoshorylases in two different enzyme sources: a) Escherichia coli BL21(DE3)pLysSpERJ-1
(§2) For using the test, the PPIPFK has to be purified. As a simple and easily available enzyme source, potatoes were selected (Solanum tuberosum L.) . The purification was carried out according to the method described by van Schaftingen et al., 1982 in Eur. J. Biochem., Vol. 129, pp. 191-195. The enzyme (PPIPFK) was stored in 25% glycerin at -20° C.
(§3) Escherichia Coli BL21(DE3)pLysSpERJ-1 was cultured and broken up as described above. The resulting raw homogenate was centrifuged at 10,000 rpm for 2 min, and at 20° C., then used in the enzyme test (21.02 mg/mL). The rice was broken up according to Elling, 1993, German Patent DE 4,221,595 Cl, at 10,000 rpm, 10 min, 20° C., and it was used as a raw extract (4.26 mg/mL) in the enzyme screening. The substrates tested were: […]
(§4) a) Nucleoside triphosphate: ATP, CTP, GTP, UTP, dTTP, each at 1 mM in the test with glucose-1-phosphate (2.5 mM) b) Nucleoside triphosphate UTP (1 mM)
(§5) Sugar-1-phosphate, each at 2.5 mM in the test

[2] = system: pyrophosphorylases in rice (Oryza sativa L.) raw extract; assay: NUSSA screening of pyrophosphorylases in rice raw extract; format: biochemical
Method: as §1
2) Example: Use of NUSSA for screening pyrophoshorylases in two different enzyme sources: b) Rice (Oryza sativa L.)
as §2, §3, §4, §5

[3] = target: Salmonella enterica group B (formerly Salmonella typhimurium LT2) GDP-mannose pyrophosphorylase (rfb M, EC 2.7.7.13), recombinant from E. coli BL21(DE3)pLysSpERJ-1 (Salmonella typhimurium, UniProt P26404); assay: biochemical
From the text: (§7) In the manner described below, it is possible to determine, by the use of the substrates (sugar-1-phosphates or sugar in the case of neuraminic acid) and nucleoside triphosphates any pyrophosphorylase activity which presents an activity in the test mixture of≧0.2 mU/mL.
The enzyme test (Nucleotidyl transferase substrate screening assay ‘NUSSA’) is based on the fact that in the nucleotidyl transferase reaction (EC 2.7-7), pyrophosphate is produced with a pyrophosphate-dependent phosphofructokinase (PPiPFK from plants or bacteria EC 2.7.1.90) with fructose-6-phosphate and in the presence of fructose-2,6-diphosphate to make fructose-1,6-diphosphates. This product is cleaved with an aldolase to form dihydroxyacetone phosphate (DHAP) and glycerin-3-phosphate (GAP). From glycerinaldehyde-3-phosphate, dihydroxyacetone phosphate is produced with the triose phosphate isomerase. Finally, dihydroxyacetone phosphate is reduced with glycerin-3-phosphate dehydrogenase to glycerin-3-phosphate (G-3-P) with NADH. 2 mol of NADH are used per mol of pyrophosphate; this consumption can be monitored by photometry.
3) Influence of GDP-mannose on the synthesis
The concentration of GTP was varied between 0.08mM and 6 mm.
The GDP-mannose was used at 0μM, 50 μM, and 100 μM in the test. […]
(§8) The total volume was 200 μL. The preparations were measured in a Titertek photometer molecular device, Munich, by photometry. […]

[4] = target: T1, GDP-mannose pyrophosphorylase (Salmonella typhimurium, UniProt P26404); format: biochemical, Salmonella enterica, group B; details: for kmax value: GTP varied at 0.08 mM M-1-P, M-1-P varied at 2 mM GTP
T1 construct: made in house; host or cells: Escherichia coli BL21(DE3)pLysS with pERJ-1 (pT7-6/rfbM)
Method: (§6) GTP was used at concentrations of 0.01-10 mM (FIG. 7).
b) Nucleoside triphosphate: GTP
Sugar-1-phosphates: Glucose-1-P, N-acetylglucosamine-1-P-, glucosamine-1-P, galactose-1-P, galactosamine-1-P, N-acetylgalactosamine-1-P, glucuronic acid-1-P, galacturonic acid-1-P, xylose-1-P, mannose-1-P
as §1

[5] = system: O=P(O)(O)O[C@H]1O[C@H](CO)[C@@H](O)[C@H](O)[C@@H]1O; assay: purified protein, by the assay type; details: other: mannose-1-phosphate 0.002-0.6 mM, GTP constant 2 mM, NUSSA, Tris-HCl pH 8
[6] = system: Nc1nc2c(ncn2[C@@H]2O[C@H](COP(=O)(O)OP(=O)(O)OP(=O)(O)O)[C@@H](O)[C@H]2O)c(=O)[nH]1; assay: purified protein, by the assay type; details: other: GTP 0.01-10 mM, mannose-1-phosphate constant 0.08 mM, NUSSA, Tris-HCl pH 8
From the text: as §7
The enzyme test (Nucleotidyl transferase substrate screening assay ‘NUSSA’) is based on the fact that in the nucleotidyl transferase reaction (EC 2.7-7), pyrophosphate is produced with a pyrophosphate-dependent phosphofructokinase (PPiPFK from plants or bacteria EC 2.7.1.90) with fructose-6-phosphate and in the presence of fructose-2,6-diphosphate to make fructose-1,6-diphosphates. This product is cleaved with an aldolase to form dihydroxyacetone phosphate (DHAP) and glycerin-3-phosphate (GAP). From glycerinaldehyde-3-phosphate, dihydroxyacetone phosphate is produced with the triose phosphate isomerase. Finally, dihydroxyacetone phosphate is reduced with glycerin-3-phosphate dehydrogenase to glycerin-3-phosphate (G-3-P) with NADH. 2 mol of NADH are used per mol of pyrophosphate; this consumption can be monitored by photometry. [drawing 3]
GTP was used at concentrations of 0.01-10 mM (FIG. 7). […]
as §8

[7] = target: Salmonella enterica group B (formerly Salmonella typhimurium LT2) GDP-mannose pyrophosphorylase (rfb M, EC 2.7.7.13), recombinant from E. coli BL21(DE3)pLysSpER (Salmonella typhimurium, UniProt P26404)
Method: as §6, §1

[8] = literature, cited from earlier work
[9] = α-D-sugar-1-phosphate 2.5 mM with UTP 1 mM
[10] = NTP 1 mM with α-D-glucose-1-phosphate 2.5 mM
[11] = NTP 1 mM with α-D-glucose-1-phosphate 2.5 mM, 1.06 μg/mL-0.14 mg/mL raw extract
[12] = α-D-sugar-1-phosphate 2.5 mM with GTP 1 mM

T1 sequence (P26404 whole entry): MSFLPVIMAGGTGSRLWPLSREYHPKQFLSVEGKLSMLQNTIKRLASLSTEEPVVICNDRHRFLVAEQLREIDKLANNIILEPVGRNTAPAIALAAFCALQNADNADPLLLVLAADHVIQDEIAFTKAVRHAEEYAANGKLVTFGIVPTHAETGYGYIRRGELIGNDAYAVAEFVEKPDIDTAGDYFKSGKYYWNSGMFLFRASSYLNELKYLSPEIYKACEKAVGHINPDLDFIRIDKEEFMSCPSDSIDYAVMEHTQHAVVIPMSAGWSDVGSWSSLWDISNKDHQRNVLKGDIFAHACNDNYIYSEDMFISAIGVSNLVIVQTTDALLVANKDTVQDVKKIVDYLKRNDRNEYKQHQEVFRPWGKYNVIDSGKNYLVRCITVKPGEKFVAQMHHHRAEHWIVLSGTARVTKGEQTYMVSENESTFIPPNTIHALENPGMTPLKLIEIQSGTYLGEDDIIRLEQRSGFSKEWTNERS
Sequence of Salmonella enterica group B (formerly Salmonella typhimurium LT2) GDP-mannose pyrophosphorylase (rfb M, EC 2.7.7.13), recombinant from E. coli BL21(DE3)pLysSpERJ-1 (P26404 whole entry): as above
Sequence of Salmonella enterica group B (formerly Salmonella typhimurium LT2) GDP-mannose pyrophosphorylase (rfb M, EC 2.7.7.13), recombinant from E. coli BL21(DE3)pLysSpER (P26404 whole entry): as above

N[C@H]1[C@H](OP(=O)(O)O)O[C@H](CO)[C@@H](O)[C@@H]1O [α-D-Glucosamin-1-P, α-D-Glucosamine-1-P]
Specific activity of pyrophosphorylases, E. coli [1, 9]: 2.75 mU/mg

Nc1ncnc2c1ncn2[C@@H]1O[C@H](COP(=O)(O)OP(=O)(O)OP(=O)(O)O)[C@@H](O)[C@H]1O [ATP]
Specific activity of pyrophosphorylases, E. coli [1, 10]: 2.76 mU/mg

O=P(O)(O)O[C@H]1O[C@H](CO)[C@H](O)[C@H](O)[C@H]1O [α-D-Galactose-1-P]
Specific activity of pyrophosphorylases, E. coli [1, 9]: 1 mU/mg
Specific activity of pyrophosphorylases, rice [2, 9]: 10.41 mU/mg

O=P(O)(O)O[C@H]1OC[C@@H](O)[C@H](O)[C@H]1O [α-D-Xylose-1-P]
Specific activity of pyrophosphorylases, rice [2, 9]: 0.42 mU/mg

O=C(O)[C@H]1O[C@H](OP(=O)(O)O)[C@H](O)[C@@H](O)[C@H]1O [α-D-Galacrurons{overscore (a)}ure-1-P, α-D-Galacturonic acid-1-P]
Specific activity of pyrophosphorylases, E. coli [1, 9]: 3.66 mU/mg
Specific activity of pyrophosphorylases, rice [2, 9]: 2.94 mU/mg

Nc1nc2c(ncn2[C@@H]2O[C@H](COP(=O)(O)OP(=O)(O)O[C@H]3O[C@H](CO)[C@@H](O)[C@H](O)[C@@H]3O)[C@@H](O)[C@H]2O)c(=O)[nH]1 [GDP-mannose, GDP-alpha-D-mannose]
Ki [3]: 14.9 µM
Ki ([3]; Ki value, noncompetitive inhibition with respect to M-1-P, mannose-1-phosphate 0.003-0.3 mM, GTP constant 2 mM, 5.67 μg/mL enzyme): 118 µM
type of inhibition with respect to M-1-P ([4]; GTP constant 2 mM, M-1-P 0.003-0.3 mM): noncompetitive inhibition
type of inhibition with respect to GTP ([4]; M-1-P constant 0.08 mM, GTP 0.08-6 mM): competitive inhibition

Salmonella enterica group B (formerly Salmonella typhimurium LT2) GDP-mannose pyrophosphorylase (rfb M, EC 2.7.7.13), recombinant from E. coli BL21(DE3)pLysSpERJ-1 (Salmonella enterica subsp. enterica serovar Typhimurium str. LT2)
Km [5]: 0.01 mm mm
Km [6]: 0.2 mM mM

CC(=O)N[C@H]1[C@@H](OP(=O)(O)O)O[C@H](CO)[C@H](O)[C@@H]1O [α-D-GalNAc-1-P, N-acetylgalactosamine-1-P]
Specific activity of pyrophosphorylases, rice [2, 9]: 0.18 mU/mg

Cc1cn([C@H]2C[C@H](O)[C@@H](COP(=O)(O)OP(=O)(O)OP(=O)(O)O)O2)c(=O)[nH]c1=O [dTTP]
Specific activity of pyrophosphorylases, E. coli [1, 10]: 10.32 mU/mg
Specific activity of pyrophosphorylases, rice [2, 11]: 5.98 mU/mg

Nc1nc2c(ncn2[C@@H]2O[C@H](COP(=O)(O)OP(=O)(O)OP(=O)(O)O)[C@@H](O)[C@H]2O)c(=O)[nH]1 [GTP]
kmax value (GTP) ([7]; pH 8): 2.4 U/mg
kmax value [4]: 2.4 U/mg

O=c1ccn([C@@H]2O[C@H](COP(=O)(O)OP(=O)(O)OP(=O)(O)O)[C@@H](O)[C@H]2O)c(=O)[nH]1 [UTP]
Specific activity of pyrophosphorylases, E. coli [1, 10]: 214.10 mU/mg
Specific activity of pyrophosphorylases, rice [2, 11]: 982.40 mU/mg

O=P(O)(O)O[C@H]1O[C@H](CO)[C@@H](O)[C@H](O)[C@@H]1O [M-1-P, mannose-1-phosphate]
kmax value (M-1-P) ([7]; vmax, mannose-1-phosphate 0.002-0.6 mM, GTP constant 2 mM, NUSSA, Tris-HCl pH 8): 1.8 U/mg
kmax value [4]: 1.8 U/mg
Specific activity of pyrophosphorylases, E. coli [1, 12]: 3.41 mU/mg
Specific activity of pyrophosphorylases, rice [2, 12]: 1.51 mU/mg

O=C(O)[C@H]1O[C@H](OP(=O)(O)O)[C@H](O)[C@@H](O)[C@@H]1O [α-D-Glucurons{overscore (a)}ure-1-P, α-D-Glucuronic acid-1-P]
Specific activity of pyrophosphorylases, E. coli [1, 9]: 4.72 mU/mg
Specific activity of pyrophosphorylases, rice [2, 9]: 14.27 mU/mg

N[C@H]1[C@@H](OP(=O)(O)O)O[C@H](CO)[C@H](O)[C@@H]1O [α-D-Galactosamin-1-P]
Specific activity of pyrophosphorylases, rice [2, 9]: 0.25 mU/mg

Nc1ccn([C@@H]2O[C@H](COP(=O)(O)OP(=O)(O)OP(=O)(O)O)[C@@H](O)[C@H]2O)c(=O)n1 [CTP]
Specific activity of pyrophosphorylases, E. coli [1, 10]: 0.75 mU/mg

CC(=O)N[C@H]1[C@@H](OP(=O)(O)O)O[C@H](CO)[C@@H](O)[C@@H]1O [α-D-GlcNAc-1, N-acetylglucosamine-1-P-]
Specific activity of pyrophosphorylases, E. coli [1, 9]: 2.02 mU/mg
Specific activity of pyrophosphorylases, rice [2, 9]: 0.27 mU/mg

B1: Pseudomonas aeruginosa (Shinabarger et al 1991): Bifunctional GDP-Man-PP from Pseudomonas aeruginosa with phosphomannose isomerase and pyrophosphorylase activity (protein, UniProt P07874 1-481, looked up)
Alginate biosynthesis protein …: MIPVILSGGSGSRLWPLSRKQYPKQFLALTGDDTLFQQTIKRLAFDGMQAPLLVCNKEHRFIVQEQLEAQNLASQAILLEPFGRNTAPAVAIAAMKLVAEGRDELLLILPADHVIEDQRAFQQALALATNAAEKGEMVLFGIPASRPETGYGYIRASADAQLPEGVSRVQSFVEKPDEARAREFVAAGGYYWNSGMFLFRASRYLEELKKHDADIYDTCLLALERSQHDGDLVNIDAATFECCPDNSIDYAVMEKTSRACVVPLSAGWNDVGSWSSIWDVHAKDANGNVTKGDVLVHDSHNCLVHGNGKLVSVIGLEDIVVVETKDAMMIAHKDRVQDVKHVVKDLDAQGRSETQNHCEVYRPWGSYDSVDMGGRFQVKHITVKPGARLSLQMHHHRAEHWIVVSGTAQVTCDDKTFLLTENQSTYIPIASVHRLANPGKIPLEIIEVQSGSYLGEDDIERLEDVYGRTAEPALQVVAGSR
Specific activity after purification ([8]; after purification): 6.12 U/mg Protein
Specific activities Raw extract ([8]; raw extract): 0.397 U/mg Protein
